Assay results taken from PubChem BioAssay (NCI).
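Where inhibition never reached the appropriate level, the endpoint shown equals the highest concentration tested. Otherwise, values were interpolated linearly from a five-concentration, 48-hour dose response in 96-well plates. The concentration for full growth arrest is given as TGI.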

Legend:
Assay in all cases: NCI tumour cell line growth inhibition, 48 h
SK-MEL-2 melanoma = test system: SK-MEL-2 melanoma
COLO 205 colon = test system: COLO 205 colon
HL-60(TB) leukemia = test system: HL-60(TB) leukemia
CCRF-CEM leukemia = test system: CCRF-CEM leukemia
SN12K1 renal = test system: SN12K1 renal
NCI-H226 lung = test system: NCI-H226 lung
OVCAR-3 ovarian = test system: OVCAR-3 ovarian
IGROV1 ovarian = test system: IGROV1 ovarian
HCC-2998 colon = test system: HCC-2998 colon
A498 renal = test system: A498 renal
DLD-1 colon = test system: DLD-1 colon
NCI-H460 lung = test system: NCI-H460 lung
XF 498 CNS = test system: XF 498 CNS
OVCAR-8 ovarian = test system: OVCAR-8 ovarian
M19-MEL melanoma = test system: M19-MEL melanoma
SNB-19 CNS = test system: SNB-19 CNS
HCT-116 colon = test system: HCT-116 colon
SF-295 CNS = test system: SF-295 CNS
A549 NSCLC = test system: A549 NSCLC
HOP-18 NSCLC = test system: HOP-18 NSCLC
P388/ADR leukemia = test system: P388/ADR leukemia
RPMI-8226 leukemia = test system: RPMI-8226 leukemia
UACC-62 melanoma = test system: UACC-62 melanoma
KM20L2 colon = test system: KM20L2 colon
EKVX NSCLC = test system: EKVX NSCLC
NCI/ADR-RES ovarian = test system: NCI/ADR-RES ovarian
K-562 leukemia = test system: K-562 leukemia
SF-539 CNS = test system: SF-539 CNS
SNB-75 CNS = test system: SNB-75 CNS
UO-31 renal = test system: UO-31 renal
OVCAR-5 ovarian = test system: OVCAR-5 ovarian
SK-MEL-5 melanoma = test system: SK-MEL-5 melanoma
MOLT-4 leukemia = test system: MOLT-4 leukemia
SF-268 CNS = test system: SF-268 CNS
SNB-78 CNS = test system: SNB-78 CNS
DMS 273 small cell lung = test system: DMS 273 small cell lung
SW-620 colon = test system: SW-620 colon
U251 CNS = test system: U251 CNS
HOP-92 NSCLC = test system: HOP-92 NSCLC
DMS 114 small cell lung = test system: DMS 114 small cell lung
UACC-257 melanoma = test system: UACC-257 melanoma
SK-MEL-28 melanoma = test system: SK-MEL-28 melanoma
HT29 colon = test system: HT29 colon
HCT-15 colon = test system: HCT-15 colon
LOX IMVI melanoma = test system: LOX IMVI melanoma
NCI-H23 lung = test system: NCI-H23 lung
OVCAR-4 ovarian = test system: OVCAR-4 ovarian
NCI-H522 lung = test system: NCI-H522 lung
RXF 393 renal = test system: RXF 393 renal
MCF7 breast = test system: MCF7 breast
SK-OV-3 ovarian = test system: SK-OV-3 ovarian
P388 leukemia = test system: P388 leukemia
SN12C renal = test system: SN12C renal
KM12 colon = test system: KM12 colon
CAKI-1 renal = test system: CAKI-1 renal
HOP-62 NSCLC = test system: HOP-62 NSCLC

COc1ccc(-c2nc3ccc([N+](=O)[O-])cc3c(=O)[nH]2)cc1
TGI (SK-MEL-2 melanoma): > 100 µM | TGI (COLO 205 colon): > 100 µM | TGI (HL-60(TB) leukemia): > 100 µM | TGI (CCRF-CEM leukemia): > 100 µM | TGI (SN12K1 renal): > 86.5 µM | TGI (NCI-H226 lung): 59.1 µM | TGI (OVCAR-3 ovarian): 64.3 µM | TGI (IGROV1 ovarian): 71.5 µM | TGI (HCC-2998 colon): > 100 µM | TGI (A498 renal): > 100 µM | TGI (DLD-1 colon): > 100 µM | TGI (NCI-H460 lung): > 100 µM | TGI (XF 498 CNS): 46.3 µM | TGI (OVCAR-8 ovarian): > 72.2 µM | TGI (M19-MEL melanoma): > 100 µM | TGI (SNB-19 CNS): 55.3 µM | TGI (HCT-116 colon): > 79.4 µM | TGI (SF-295 CNS): > 63.3 µM | TGI (A549 NSCLC): > 100 µM | TGI (HOP-18 NSCLC): > 100 µM | TGI (P388/ADR leukemia): > 100 µM | TGI (RPMI-8226 leukemia): > 100 µM | TGI (UACC-62 melanoma): > 100 µM | TGI (KM20L2 colon): > 100 µM | TGI (EKVX NSCLC): > 100 µM | TGI (NCI/ADR-RES ovarian): > 100 µM | TGI (K-562 leukemia): > 100 µM | TGI (SF-539 CNS): 29.7 µM | TGI (SNB-75 CNS): 31 µM | TGI (UO-31 renal): > 100 µM | TGI (OVCAR-5 ovarian): > 100 µM | TGI (SK-MEL-5 melanoma): > 100 µM | TGI (MOLT-4 leukemia): > 100 µM | TGI (SF-268 CNS): 67.3 µM | TGI (SNB-78 CNS): 71.8 µM | TGI (DMS 273 small cell lung): > 100 µM | TGI (SW-620 colon): > 100 µM | TGI (U251 CNS): > 64.3 µM | TGI (HOP-92 NSCLC): 45.8 µM | TGI (DMS 114 small cell lung): > 100 µM | TGI (UACC-257 melanoma): > 100 µM | TGI (SK-MEL-28 melanoma): > 100 µM | TGI (HT29 colon): > 100 µM | TGI (HCT-15 colon): > 100 µM | TGI (LOX IMVI melanoma): > 100 µM | TGI (NCI-H23 lung): > 86.8 µM | TGI (OVCAR-4 ovarian): 33.4 µM | TGI (NCI-H522 lung): 90.5 µM | TGI (RXF 393 renal): > 75.6 µM | TGI (MCF7 breast): > 100 µM | TGI (SK-OV-3 ovarian): 29.3 µM | TGI (P388 leukemia): > 100 µM | TGI (SN12C renal): > 100 µM | TGI (KM12 colon): > 100 µM | TGI (CAKI-1 renal): > 86.7 µM | TGI (HOP-62 NSCLC): > 67.7 µM
